According to ChEMBL document CHEMBL5385862, “Acyloxymethyl and alkoxycarbonyloxymethyl prodrugs of a fosmidomycin surrogate as antimalarial and antibacterial agents” (Eur J Med Chem, 2023):

Legend:
[1] = tested on: Mycobacterium tuberculosis; assay: Antitubercular activity against Mycobacterium tuberculosis H37Ra assessed as inhibition of bacterial growth; format: functional, organism-based
Acinetobacter baumannii = assay: Antibacterial activity against Acinetobacter baumannii assessed as inhibition of bacterial growth; format: functional, organism-based
[2] = Selectivity index ratio of CC50 for cytotoxicity against human MRC5 cells to IC50 for antiplasmodial activity against asexual blood stage Plasmodium falciparum K1 assessed as inhibition of parasitic growth; format: toxicity, cell-based; details: read-out: Ratio CC50/IC50
[3] = Cytotoxicity against human MRC5 cells assessed as reduction in cell viability; format: toxicity, cell-based
Plasmodium falciparum = assay: Antiplasmodial activity against asexual blood stage Plasmodium falciparum K1 assessed as inhibition of parasitic growth; format: functional, organism-based
[4] = Selectivity index ratio of CC50 for cytotoxicity against human MRC5 cells to IC50 for antibacterial activity against Acinetobacter baumannii assessed as inhibition of bacterial growth; format: toxicity, cell-based; details: read-out: Ratio CC50/IC50

SMILES	IC50 [1] [µM]	IC50 (Acinetobacter baumannii) [µM]	selectivity ratio [2]	CC50 [3] [µM]	IC50 (Plasmodium falciparum) [µM]	selectivity ratio [4]
CN(O)C(=O)CCCP(=O)(OCOC(=O)C(C)(C)C)OCOC(=O)C(C)(C)C	> 56.1	12	> 59	> 51	0.86	> 4.3
CN(O)C(=O)CCCP(=O)(OCOC(=O)c1ccccc1)OCOC(=O)c1ccccc1	> 64	8.2	234	28.1	0.12	3.4
CC(C)OC(=O)OCOP(=O)(CCCC(=O)N(C)O)OCOC(=O)OC(C)C	> 64	> 149	> 461	> 50.7	0.11	
CCON(C)C(=O)CCCP(=O)(OCOC(=O)c1coc(-c2ccccc2O)n1)OCOC(=O)c1coc(-c2ccccc2O)n1	> 64	16	48	26	0.54	1.6
CN(O)C(=O)CCCP(=O)(OCOC(=O)OCCCc1ccccc1)OCOC(=O)OCCCc1ccccc1	> 64	2.6	> 711	> 64	0.09	> 25
CN(O)C(=O)CCCP(=O)(OCOC(=O)/C=C/c1ccccc1)OCOC(=O)/C=C/c1ccccc1	> 64	5.6	606	30.3	0.05	5.4
CN(O)C(=O)CCCP(=O)(OCOC(=O)c1ccc(Cl)cc1)OCOC(=O)c1ccc(Cl)cc1	> 64	39	223	31.2	0.14	0.8
CCON(C)C(=O)CCCP(=O)(OCOC(=O)c1cccc(O)c1O)OCOC(=O)c1cccc(O)c1O	> 64	> 121	> 61	> 64	1.05	
CCCCCCCC(=O)OCOP(=O)(CCCC(=O)N(C)O)OCOC(=O)CCCCCCC	> 64	0.39	1340	40.3	0.03	103
CN(O)C(=O)CCCP(=O)(OCOC(=O)c1cccc(Cl)c1)OCOC(=O)c1cccc(Cl)c1	> 64	54	> 457	> 64	0.14	> 1.2
CCON(C)C(=O)CCCP(=O)(OCOC(=O)c1ccccc1O)OCOC(=O)c1ccccc1O	> 64	> 129	> 229	> 64	0.28	
CCCCCCCC(=O)OCOP(=O)(OCOC(=O)CCCCCCC)C(CCC(=O)N(C)O)c1ccc(Cl)c(Cl)c1 (stereo not drawn)	> 64	11	51	22.5	0.44	2
CN(O)C(=O)CCCP(=O)(OCOC(=O)CCCCc1ccccc1)OCOC(=O)CCCCc1ccccc1	> 64	2.4	> 1280	> 64	0.05	> 27
CN(O)C(=O)CCC(c1ccc(Cl)c(Cl)c1)P(=O)(OCOC(=O)/C=C/c1ccccc1)OCOC(=O)/C=C/c1ccccc1 (stereo not drawn)	> 64	> 97	5.6	24.6	4.42	
CC(C)OC(=O)OCOP(=O)(OCOC(=O)OC(C)C)C(CCC(=O)N(C)O)c1ccc(Cl)c(Cl)c1 (stereo not drawn)	> 64	> 111	33	7.58	0.23	
CN(O)C(=O)CCCP(=O)(OCOC(=O)c1ccc2ccccc2c1)OCOC(=O)c1ccc2ccccc2c1	> 64	51	109	27.2	0.25	0.53
CN(O)C(=O)CCC(c1ccc(Cl)c(Cl)c1)P(=O)(OCOC(=O)C(C)(C)C)OCOC(=O)C(C)(C)C (stereo not drawn)	> 64	> 112	15	6.81	0.44	
CCCCCCCCOC(=O)OCOP(=O)(CCCC(=O)N(C)O)OCOC(=O)OCCCCCCCC	> 64	0.7	539	37.7	0.07	54
COc1ccc(C(=O)OCOP(=O)(CCCC(=O)N(C)O)OCOC(=O)c2ccc(OC)cc2)cc1	> 64	9.9	184	33.1	0.18	3.3
Cc1ccc(C(=O)OCOP(=O)(CCCC(=O)N(C)O)OCOC(=O)c2ccc(C)cc2)cc1	> 64	11	> 112	> 64	0.57	> 5.8
CCON(C)C(=O)CCCP(=O)(OCOC(=O)OCc1coc(-c2ccccc2O)n1)OCOC(=O)OCc1coc(-c2ccccc2O)n1	> 64	7.1	61	25.5	0.42	3.6
CN(O)C(=O)CCCP(=O)(OCOC(=O)CCc1ccccc1)OCOC(=O)CCc1ccccc1	> 64	21	> 711	> 64	0.09	> 3
O=CN(O)CCCP(=O)(O)O [FOSMIDOMYCIN SODIUM]	> 64			> 64		
